Measurements reported in US20260240826A1, “COMPOSITIONS FOR PD-L1 INHIBITION AND METHODS OF USE THEREOF” (ARIZONA BOARD OF REGENTS ON BEHALF OF THE UNIVERSITY OF …, priority 2023, published 2026).

What was measured:
PD-L1 [1] = experiment: SSL-induced PD-L1 protein in SKH-1 mouse epidermis, immunoblot; format: in vivo; settings: topical 8 mM; 24 hr post SSL
Method: (§1) UVB exposure was performed on AP-1 luciferase reporter mice on the SKH-1 genetic background at a dose of 2.75 kJ/m2 using FS40 bulbs (Q-Lab Corporation) as described before with the modification that mice were imaged 24 hr post UVB exposure using whole body bioluminescence instead of 48 hr post UVB using ear punches. SSL irradiation of SKH-1 mice (Charles River Laboratories, strain code 477) at a dose of 90 kJ/m2 UVA/6 kJ/m2 UVB was performed using UVA-340 bulbs (Q-Lab Corporation) as described before.
Cells were lysed in RIPA containing 1×HALT protease+phosphatase inhibitor cocktail (ThermoFisher Scientific) and 100 mM PMSF and protein concentrations were assessed using BCA assay (Bio-Rad). Mouse epidermal protein lysates for immunoblot analysis were derived from scraped frozen SKH-1 skins as described previously (Blohm-Mangone et al., 2018). Twenty μg of protein/lane were loaded onto 10% gels for electrophoresis/immunoblotting using established protocols. Human cell lysate blots were probed with Cell Signaling PD-L1 antibody #13684, and mouse epidermal lysate blots were probed with Invitrogen PD-L1 antibody #PA5-20343. Beta-actin (Cell Signaling #4970) was used as a loading control. An anti-rabbit secondary antibody (Cell Signaling #7074) was used for all blots using standard chemiluminescent protocols (Thermo Scientific Pico ECL #34577). […]

PD-L1 [2] = experiment: SSL-induced PD-L1 protein in primary epidermal keratinocytes (HEK), immunoblot; format: cell-based; settings: human primary keratinocytes (HEK cells)
Method: For SSL treatment, UVA-340 bulbs (Q-Lab Corporation) were used. Before exposure, cells were washed with 1×PBS and then incubated in 4 mL PBS (with 0.01% MgCl2 and 0.01% CaCl2) during irradiation. Cells were exposed to 40 kJ/m2 UVA/2.68 kJ/m2 UVB, then rinsed once more with PBS prior to being placed back into DMEM with 1% FBS+penicillin/streptomycin and vehicle or BMS-202 (post-treatment) and incubated until harvest 24 hr later. Control cells underwent identical processing, except were held in the biosafety cabinet without UV exposure.
Adult human epithelial keratinocytes (HEKs) were purchased from Thermo Scientific and maintained in EpiLife media on collagen-coated plates as per the vendor's instructions. Cells were treated with BMS-202 and SSL as described for HaCaT cells.
Cells were lysed in RIPA containing 1×HALT protease+phosphatase inhibitor cocktail (ThermoFisher Scientific) and 100 mM PMSF and protein concentrations were assessed using BCA assay (Bio-Rad). Mouse epidermal protein lysates for immunoblot analysis were derived from scraped frozen SKH-1 skins as described previously (Blohm-Mangone et al., 2018). Twenty μg of protein/lane were loaded onto 10% gels for electrophoresis/immunoblotting using established protocols. […]

PD-L1 [3] = experiment: PD-L1 mRNA in SKH-1 mouse skin by RT-qPCR; format: in vivo; settings: topical 8 mM; 24 hr after SSL
Method: as §1
Total RNA was isolated from SSL-treated mouse skin using the Qiagen RNeasy Mini Kit (Qiagen) according to the manufacturer's protocol. RNA integrity was checked by the RNA 6000 Nano chip kit using Agilent 2100 Bioanalyzer (Agilent Technologies). […] Then, 10 ng of cDNA was used for amplification of target genes by quantitative PCR using the following conditions: 95° C. for 10 min followed by 95° C. for 15 sec and 60° C. for 1 min for a total of 40 cycles performed in the ABI7500 Real-Time PCR System (Applied Biosystems). […] After amplification plots were generated, the Ct values (cycle number at which fluorescence reaches threshold) were recorded and quantified using the comparative (ΔΔCt) Ct method as described in the ABI Prism 7500 sequence detection system user guide. Statistical significance was calculated employing the Student's two-tailed t-test.

[4] = test system: AP-1 luciferase reporter HaCaT cells; experiment: AP-1 reporter luciferase assay in HaCaT keratinocytes; format: cell-based, human; settings: harvest 12 hr after UVB
Method: HaCaT cells stably transfected with the TRE-driven luciferase plasmid (“AP-1 luciferase” cells) were seeded in 6-well plates, grown to 70% confluence and serum starved overnight to reduce background signaling. Cells were pretreated with BMS-202 or vehicle (DMSO) for 1 hr, then washed twice with PBS prior to exposure to […]. Cells were then washed once more with PBS before being placed into fresh starvation media with vehicle or BMS-202 until harvest 12 hr later. Cells were lysed in Promega's Cell Culture Lysis Buffer (1×), and a total of 10 μg protein per sample replicate was assayed for luciferase activity according to the manufacturer's instructions for the Luciferase Assay System (Promega) using a TD 20/20 luminometer (Turner Designs). Experimental triplicates were averaged and the means from each independent experiment were analyzed by Student's t-test for statistical significance. Results are representative of three independent experiments.

[5] = cited from earlier work
[6] = screening based on physicochemical properties (Log P, UVA/UVB absorbance); settings: data not shown
[7] = test system: AP-1 luciferase SKH-1 reporter mice; experiment: AP-1 SKH-1 reporter mouse bioluminescence; format: in vivo; settings: topical 8 mM; imaged 24 hr after UVB
Method: as §1
Male transgenic SKH-1 mice heterozygous for the TPA-Response Element (TRE)-driven luciferase transgene (“AP-1 luciferase” mice, n=3) were treated topically on their backs with 200 μL of 8 mM BMS-202 or vehicle control (acetone). For all mice receiving BMS-202, the compound was applied twice before (24 hr and 1 hr) as well as immediately after UV exposure, a dose regimen ensuring efficient target modulation, similar to topical non-sunscreen photoprotection approaches. Mice were injected i.p. with luciferin (potassium salt) stock solution in PBS without magnesium or calcium at a dose of <150 mg/kg of body weight 24 hr after UV exposure and imaged (Lago instrument, Spectral Instruments Imaging) with Aura software analysis.

COc1nc(OCc2cccc(-c3ccccc3)c2C)ccc1CNCCNC(C)=O [BMS-202]
UV-induced PD-L1 upregulation at the protein level (immunoblot) (PD-L1 [1]): significantly antagonized
antagonistic effect on PD-L1 protein, pre- and post-UV application versus pre only (PD-L1 [1]): more pronounced
SSL-induced PD-L1 protein upregulation (immunoblot) (PD-L1 [2]): reproducible
PD-L1 mRNA expression in full thickness mouse skin (RT-qPCR) (PD-L1 [3]): inhibition
UVB-induced AP-1 luciferase signal intensity [4]: significant inhibition
systemic availability upon topical application [5]: minimal systemic availability
UVA/UVB absorbance [6]: absence of UVA/UVB absorbance
attenuation in bioluminescent signal intensity (UV-induced AP-1 stress response) [7]: ~5 fold
